Laboratory results reported in patent US20100087413A1, “Prevention and treatment of inflammation-induced and/or immune-mediated bone loss” (priority 2003, published 2010).

Target: T1, human 11β-HSD1 (Homo sapiens, UniProt P28845)
T1 construct: expressed in transfected cells; host or cells: HEK-293 cells, stably transfected; cell lysate
Assay: 11β-HSD1 reductase activity (conversion of radiolabelled cortisone to cortisol) in lysates of stably transfected HEK-293 cells
Type: biochemical
Conditions: 10 μM CBX, 100 nM cortisone substrate

T1 sequence (P28845 whole entry): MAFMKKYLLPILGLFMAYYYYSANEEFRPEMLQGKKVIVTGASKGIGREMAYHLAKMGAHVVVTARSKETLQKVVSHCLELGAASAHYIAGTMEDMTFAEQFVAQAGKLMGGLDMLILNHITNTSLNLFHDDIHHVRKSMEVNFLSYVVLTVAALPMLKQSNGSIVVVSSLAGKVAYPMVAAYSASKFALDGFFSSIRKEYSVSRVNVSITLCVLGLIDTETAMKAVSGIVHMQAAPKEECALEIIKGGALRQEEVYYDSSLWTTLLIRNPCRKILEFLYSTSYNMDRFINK

11β-HSD1 % of control: 4.43 % of control
Compound: CC1(C)[C@@H](OC(=O)CCC(=O)O)CC[C@]2(C)[C@H]3C(=O)C=C4[C@@H]5C[C@@](C)(C(=O)O)CC[C@]5(C)CC[C@@]4(C)[C@]3(C)CC[C@@H]12 [CBX, carbenoxolone]
